This assay concerns the target T1, methionine aminopeptidase-2 (MetAP2) (Homo sapiens, UniProt P50579).
T1 construct: made in house; host or cells: insect cells, baculovirus system (secreted, purified from culture supernatant)
As to the kind of experiment: Inhibition of MetAP2 enzyme activity (96-well, Met-Ala-Ser substrate, L-amino acid oxidase/peroxidase/ortho-dianisidine, 450 nm). In kind it is biochemical. As to conditions: pH 7.4, Met-Ala-Ser substrate, 20 minutes. The procedure:
The ability of compounds of the present invention to inhibit methionine aminopeptidase 2 was evaluated using the following assay.
Assays for MetAP2 enzyme activity and MetAP2 inhibition were performed in 96-well microtiter plates. Compounds to be tested for MetAP2 inhibition were dissolved in dimethyl-sulfoxide at 10 mM and diluted ten-fold in assay buffer ([…], pH 7.4, 100 mM NaCl). Ten microliters of solution of each compound to be tested for inhibition were introduced into each cell of the plate, with each compound being tested in triplicate.
The absorbence at 450 nanometers was measured every 20 seconds over a period of twenty minutes using an automaic plate reader (Molecular Devices, CA, USA). The Vmax in mOD/min, calculated for each well was used to represent MetAP2 activity. The IC50 for each inhibitor was obtained by plotting the remaining MetAP2 activity versus inhibitor concentration.

The mark [1] stands for this setting: IC50, recombinant MetAP2 4 μg/mL.

Where a name gives a salt, the structure may show the parent alone.

T1 sequence (P50579 whole entry): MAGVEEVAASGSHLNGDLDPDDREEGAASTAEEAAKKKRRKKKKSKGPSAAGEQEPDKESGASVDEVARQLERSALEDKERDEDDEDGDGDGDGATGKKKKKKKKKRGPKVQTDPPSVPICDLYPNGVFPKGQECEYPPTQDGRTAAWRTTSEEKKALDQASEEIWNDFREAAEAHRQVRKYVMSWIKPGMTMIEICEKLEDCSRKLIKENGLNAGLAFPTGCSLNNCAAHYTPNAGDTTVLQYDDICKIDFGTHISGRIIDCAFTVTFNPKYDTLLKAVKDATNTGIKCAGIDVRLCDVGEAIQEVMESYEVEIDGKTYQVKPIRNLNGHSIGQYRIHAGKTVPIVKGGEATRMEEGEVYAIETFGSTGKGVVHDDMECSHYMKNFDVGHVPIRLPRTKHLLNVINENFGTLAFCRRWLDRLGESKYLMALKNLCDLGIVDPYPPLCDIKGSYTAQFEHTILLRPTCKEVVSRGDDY

Consider `CC(=O)OC[C@@H](C)NC(=O)C(O)[C@H](N)CC1CCCCC1` (stereo partly drawn) [Example 52, (2RS,3R,2'R)-N-((2-acetoxypropyl)-3-amino-2-hydroxy-4-cyclohexyl)butanamidehydrochloride], for which the IC50 under setting [1] was 6100 nM.
On to `COc1cc(NC(=O)C(O)[C@H](N)CC2CCCCC2)cc(OC)c1OC` (mixture of isomers) [Example 225, (2RS,3R)-3-amino-4-cyclohexyl-2-hydroxy-N-(3,4,5-trimethoxyphenyl)butanamide Hydrochloride], for which, under setting [1], the IC50 was determined as 350 nM.
Still for that read-out and setting: the figure for `C[C@H](NC(=O)C(O)[C@H](N)CC1CCCCC1)C(=O)Nc1ccc([N+](=O)[O-])cc1O` (stereo partly drawn) [Example 71, ((2RS,3R)-3-amino-2-hydroxy-4-cyclohexyl)butanoyl-L-alanyl-(4-nitro-2-hydroxyphen-1-yl)amide hydrochloride] is 12000 nM; for `N[C@H](CC1CCCCC1)C(O)C(=O)Nc1ccc(Oc2ccccc2)cc1` (mixture of isomers) [Example 185, (2RS,3R)-3-amino-4-cyclohexyl-2-hydroxy-N-(4-phenoxyphenyl)butanamide hydrochloride] it is 1800 nM; for `N[C@H](CC1CCCCC1)C(O)C(=O)NCCc1c(Cl)cccc1Cl` (stereo partly drawn) [Example 165, (2RS,3R)-3-amino-4-cyclohexyl-N-(2,6-dichlorophenethyl)-2-hydroxybutanamidehydrochloride] it is 260 nM.
The same measure, in the same setting: the figure for `CCOC(=O)CCNC(=O)C(O)[C@H](N)Cc1ccccc1` (mixture of isomers) [Example 20, (2RS,3R)-N-(2-(carboethoxy)ethyl)-3-amino-2-hydroxy-4-phenyl-butanamide hydrochloride] is 5800 nM; for `CCC(=O)OC[C@@H](C)NC(=O)C(O)[C@H](N)CC1CCCCC1` (stereo partly drawn) [Example 51, hydrochloride] it is 5000 nM; for `COC(=O)C(Cc1ccccc1)NC(=O)C(O)[C@H](N)CC1CCCCC1` (mixture of isomers) [Example 127, methyl (2RS,3R)-2-((3-amino-4-cyclohexyl-2-hydroxybutanoyl)amino)-3-phenylpropanoate hydrochloride] it is 28000 nM.
In the case of `CCOC(=O)CCCNC(=O)C(O)[C@H](N)CC1CCCCC1` (mixture of isomers) [Example 25, (2RS,3R)-N-(3-(carboethoxy)propyl)-3-amino-2-hydroxy-4-cyclohexyl-butanamide hydrochloride], under “recombinant MetAP2 4 μg/mL”, the IC50 amounted to 1900 nM.
On to `N[C@H](CC1CCCCC1)C(O)C(=O)NCc1ccc(Cl)cc1` (mixture of isomers) [Example 193, (2RS,3R)-3-amino-N-(4-chlorobenzyl)-4-cyclohexyl-2-hydroxybutanamide hydrochloride], for which the IC50 under setting [1] came to 2500 nM.
Same read-out and setting: the figure for `CCNC(=O)[C@H](C)NC(=O)C(O)[C@@H](N)CCSC` (stereo partly drawn) [Example 2, (2RS,3S,1'S)-N-((1-Ethylcarboxamido)ethyl)-3-amino-2-hydroxy-5-(methylthio)pentanamide hydrochloride] is 47000 nM.
On the same count and under the same terms, as for `CCn1nccc1NC(=O)[C@H](C)NC(=O)C(O)[C@H](N)CC1CCCCC1` (stereo partly drawn) [Example 72, ((2RS,3R)-3-amino-2-hydroxy-4-cyclohexyl)butanoylL-alanyl-(1-ethylpyrazole)amide hydrochloride], the figure is 9200 nM; as for `N[C@H](CC1CCCCC1)C(O)C(=O)NCCNc1ccc([N+](=O)[O-])cn1` (stereo partly drawn) [Example 57, (2RS,3R) N-(5-nitropyridyl-2-aminoethyl) 3-amino-2-hydroxy-4-cyclohexyl)butanamide dihydrochloride], 3100 nM; as for `Cc1ccc(S(=O)(=O)NCCNC(=O)C(O)[C@H](N)CC2CCCCC2)cc1` (stereo partly drawn) [Example 81, (2RS,3R)-3-amino-2-hydroxy-4-cyclohexyl)butanoyl-(2-4-toluenesulfonylaminoethyl)amide hydrochloride], 1800 nM.
On the same count and under the same terms, the figure for `N[C@H](CC1CCCCC1)C(O)C(=O)NCCCN1CCCC1=O` (mixture of isomers) [Example 102, (2RS,3R)-3-Amino-4-cyclohexyl-2-hydroxy-N-(3-(2-oxo-1-pyrrolidinyl)propyl)butanamide Hydrochloride] is 13000 nM.
Consider `Cc1ccc(CNC(=O)C(O)[C@H](N)CC2CCCCC2)cc1` (mixture of isomers) [Example 187, (2RS,3R)-3-amino-4-cyclohexyl-2-hydroxy-N-(4-methylbenzyl)butanamide hydrochloride], for which the IC50 under setting [1] worked out at 1200 nM.
The same measure, in the same setting: as for `COc1cc2c(cc1NC(=O)C(O)[C@H](N)CC1CCCCC1)oc1ccccc12` (mixture of isomers) [Example 179, (2RS,3R)-3-amino-4-cyclohexyl-2-hydroxy-N-(2-methoxydibenzo(b,d)furan-3-yl)butanamide hydrochloride], the figure is 4900 nM; as for `CC(=O)OC[C@H](C)NC(=O)C(O)[C@H](N)CC1CCCCC1` (stereo partly drawn) [Example 47], 1500 nM.
The same measure, in the same setting: as for `N[C@H](CC1CCCCC1)C(O)C(=O)Nc1ccccc1` (mixture of isomers) [Example 107, (2RS,3R)-3-Amino-4-cyclohexyl-2-hydroxy-N-phenylbutanamide Hydrochloride], the figure is 1200 nM; as for `C[C@H](NC(=O)C(O)[C@H](N)CC1CCCCC1)C(=O)NCCCN1CCCC1=O` (stereo partly drawn) [Example 64, ((b 2RS,3R)-3-amino-2-hydroxy-4-cyclohexyl)butanoyl-L-alanyl-(2-pyrrolidinopropyl)amide hydrochloride], 19000 nM; as for `N[C@H](CC1CCCCC1)C(O)C(=O)NCc1ccccc1Cl` (mixture of isomers) [Example 159, (2RS,3R)-3-amino-N-(2-chlorobenzyl)-4-cyclohexyl-2-hydroxybutanamide], 1500 nM.
With `COc1ccc(S(=O)(=O)NCCCCNC(=O)C(O)[C@H](N)CC2CCCCC2)cc1OC` (mixture of isomers) [Example 85, (2RS,3R)-3-amino-4-cyclohexyl-N-(4-(((3,4-dimethoxyphenyl)sulfonyl)amino)butyl)-2-hydroxybutanamide hydrochloride], under setting [1], the IC50 was 3200 nM.
The same measure, in the same setting: the figure for `CSCC[C@@H](N)C(O)C(=O)N(C)CCc1ccccc1` (stereo partly drawn) [Example 33, (2RS,3R)-3-amino-2-hydroxy-N-methyl-5-(methylthio)-N-phenethylpentanaamide hydrochloride] is 2500 nM.
On the same count and under the same terms, the figure for `N[C@H](CC1CCCCC1)C(O)C(=O)NCCc1cccc(F)c1` (mixture of isomers) [Example 166, (2RS,3R)-3-amino-4-cyclohexyl-N-(3-fluorophenethyl)-2-hydroxybutanamide hydrochloride] is 590 nM; for `N[C@H](CC1CCCCC1)C(O)C(=O)NCc1cccc(Cl)c1` (mixture of isomers) [Example 188, (2RS,3R)-3-amino-N-(3-chlorobenzyl)-4-cyclohexyl-2-hydroxybutanamide hydrochloride] it is 1600 nM; for `NCCNC(=O)C(O)[C@H](N)CC1CCCCC1` (stereo partly drawn) [Example 83, (2RS,3R)-3-amino-2-hydroxy-4-cyclohexyl)butanoyl-(2-aminoethyl)amide dihydrochloride] it is 26000 nM.
Consider `CCOC(=O)c1csc([C@H](C)NC(=O)C(O)[C@H](N)CC2CCCCC2)n1` (stereo partly drawn) [Example 54, (2RS,3R,1'-S)-N-(4-ethoxycarbonyl-2-(1'-aminoethyl)thizole)-3-amino-2-hydroxy-4-cyclohexyl)butanamide hydrochloride], for which the IC50 under setting [1] was found to be 2600 nM.

These data come from patent US6242494A, “Substituted β-amino acid inhibitors of methionine aminopeptidase-2” (Abbott Laboratories, priority 1999, dated 2001).
